Laboratory results as given in patent US5571819A, “Imidazopyridines as muscarinic agents” (priority 1994, dated 1996).
Read-outs that look alike come from different tables or passages of the source.

Key:
[1] = system: patients with mild to moderate Alzheimer's Disease; conditions: cited from earlier work; for improvement in memory in patients: mild to moderate Alzheimer's Disease
[2] = in vivo; cited from earlier work
[3] = target: T1, ml receptors (muscarinic receptor subtypes) (Homo sapiens, UniProt P11229); assay: biochemical; type: binding
T1 sequence (P11229 1-460): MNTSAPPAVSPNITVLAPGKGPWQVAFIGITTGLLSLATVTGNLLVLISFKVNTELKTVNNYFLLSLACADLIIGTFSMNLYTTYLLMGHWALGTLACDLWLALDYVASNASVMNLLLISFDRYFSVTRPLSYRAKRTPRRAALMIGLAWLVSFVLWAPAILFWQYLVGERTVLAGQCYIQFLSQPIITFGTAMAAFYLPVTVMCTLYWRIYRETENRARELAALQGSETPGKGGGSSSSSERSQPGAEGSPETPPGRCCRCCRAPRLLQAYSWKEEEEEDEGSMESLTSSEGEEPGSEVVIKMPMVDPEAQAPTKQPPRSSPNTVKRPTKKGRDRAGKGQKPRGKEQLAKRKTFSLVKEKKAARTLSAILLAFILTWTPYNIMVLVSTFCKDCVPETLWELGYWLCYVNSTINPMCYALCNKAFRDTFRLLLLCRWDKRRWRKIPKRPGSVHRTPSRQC

[4] = target: T2, M1 acetylcholine receptors (Homo sapiens, UniProt P11229); assay: Stimulation of phosphoinositide (PI) hydrolysis in CHO cells expressing M1 acetylcholine receptors; type: cell-based; conditions: 1 h, read-out: % PI Hydrolysis ml receptors in CHO cells maximum %, carbachol = 100%
T2 sequence (P11229 1-460): T1 sequence (P11229 1-460)

[5] = ml 3H QNB Binding in CHO cells Ki (μM), [3H]QNB 0.23 nM, 37 °C, 1 hour, CHO cells, ml
[6] = read-out: ml 3H QNB Binding in CHO cells Ki, [3H]QNB 0.23 nM, 37 °C, 1 hour, CHO cells, ml

COC(=O)C1=CCCN(C)C1 [arecoline]
improvement in memory in patients [1]: memory improvement in patients with mild to moderate Alzheimer's Disease
half-life [2]: short half-life

c1ccc(Cn2cnc3c(OC4CN5CCC4CC5)nccc32)cc1 (stereo not drawn) [Example 5, 3-(1-Benzyl-1H-imidazo[4,5-c]pyridin-4-yloxy)-1-aza-bicyclo[2.2.2]octane]
Ki [3, 5]: 3.85 µM

Cn1cnc2c(O[C@@H]3CN4CC[C@@H]3C4)ncnc21 (relative stereo) [Example 10, exo-6-(1Aza-bicyclo[2,2.1]hept-3-yloxy)-9-methylpurine]
Ki [3, 5]: 17.1 µM

Cn1c(C2(O)CN3CCC2CC3)nc2ncccc21 (stereo not drawn) [Example 13, 3-(1-Methyl-1H-imidazo[4,5-b]pyridin-2-yl)-1-aza-bicyclo[2.2.2]octan-3-ol]
Ki [3, 6]: 1.42 µM

Cn1cnc2c(O[C@H]3CN4CC[C@@H]3C4)nccc21 (relative stereo) [Example 1, endo-4-(1-Aza-bicyclo[2.2.1]hept-3-yloxy)-1-methyl-1H-imidazo[4,5-c]pyridine]
Emax [4]: 21.7%
Ki [3, 5]: 19.3 µM

Cn1cnc2c(OCC3CN4CCC3CC4)nccc21 (stereo not drawn) [Example 8, 3-(1-Methyl-1H-imidazo[4,5,c]pyridin-4-yloxymethyl)-1-aza-bicyclo[2.2.2]octane]
Ki [3, 5]: 2.65 µM

Cn1cnc2c(O[C@H]3CN4CC[C@@H]3C4)nccc21 (single isomer, unassigned) [Example 3, (-)-endo-4-(1-Aza-bicyclo[2.2.1]hept-3-yloxy)-1-methyl-1H-imidazo[4,5-c]pyridine]
Emax [4]: 26.2%
Ki [3, 5]: 14.2 µM

OC1(c2nc3c(Cl)nccc3n2Cc2ccccc2)CN2CCC1CC2 (stereo not drawn) [Example 14, 3-(1-Benzyl-4-chloro-1H-imidazo[4,5-c]pyridin-2-yl)-1-azabicyclo[2.2.2]octan-3-ol]
Ki [3, 5]: 1.65 µM

CCN1CCCC(O)(c2nc3c(Cl)nccc3n2Cc2ccccc2)C1 (stereo not drawn) [Example 15, 3-(1-Benzyl-4-chloro-1H-imidazo[4,5-c]pyridin-2-yl)-1-ethyl-piperidin-3-ol]
Ki ([3]; read-out: ml 3H QNB Binding in CHO cells Ki): 9.3 µM

Nc1c2c(nc3ccccc13)CCCC2 [tacrine]
adverse side effects ([1]; especially at the higher doses): adverse side effects especially at the higher doses where it is most effective
improvement in memory in patients [1]: improvement in memory can be shown in patients with mild to moderate Alzheimer's Disease

c1ccc(Cn2cnc3c(OC4CN5CCC4CC5)nccc32)cc1 (single isomer, unassigned) [Example 7, (--)-3-(1-Benzyl-1H-imidazo[4,5-c]pyridin-4-yloxy)-1-aza-bicyclo[2.2.2]octane]
Ki [3, 5]: 17.6 µM

c1ccc(Cn2cnc3c(OC4CN5CCC4CC5)nccc32)cc1 (single isomer, unassigned; (+)) [Example 6, (+)-3-(1-Benzyl-1H-imidazo[4,5-c]pyridin-4-yloxy)-1-aza-bicyclo[2.2.2]octane]
Ki [3, 5]: 13.4 µM

Cn1cnc2c(O[C@@H]3CN4CC[C@@H]3C4)nccc21 (relative stereo) [Example 4, (exo)-4-(1-Aza-bicyclo[2,2,1]hept-3-yloxy)-1-methyl-1H-imidazo[4,5-c]pyridine]
Ki [3, 6]: 20.6 µM

Cn1cnc2c(O[C@H]3CN4CC[C@@H]3C4)ncnc21 (relative stereo) [Example 9, endo-6-(1Aza-bicyclo[2.2,1]hept-3-yloxy)-9-methylpurine]
Ki [3, 5]: 27 µM
